Test results taken from ChEMBL document CHEMBL4118195, “Synthesis and profiling of benzylmorpholine 1,2,4,5-tetraoxane analogue N205: Towards tetraoxane scaffolds with potential for single dose cure of malaria” (Bioorg Med Chem, 2018).

Experiments:
[1] = Metabolic stability in rat blood after 2 to 4 hrs by LC-MS method; assay type: ADME, tissue-based
Plasmodium falciparum [2] = test: Antimalarial activity against Plasmodium falciparum 3D7 infected in human erythrocytes after 48 hrs by SYBR Green I dye-based fluorescence assay; assay type: functional, organism-based; conditions: 3D7, 48 h
[3] = Metabolic stability in human blood after 2 to 4 hrs by LC-MS method; assay type: ADME, tissue-based
[4] = Half life in rat blood by LC-MS method; assay type: ADME, tissue-based
Plasmodium berghei [5] = test: Antimalarial activity against Plasmodium berghei infected in mouse assessed as reduction in parasitemia at 30 mg/kg, po administered as single dose measured on day 3 relative to control; assay type: functional; design: scale not given: the % may be the effect or the level left
Plasmodium berghei [6] = test: Antimalarial activity against Plasmodium berghei infected in mouse assessed as mouse mean survival days at 30 mg/kg, po administered as single dose; assay type: functional
[7] = Half life in Sprague-Dawley rat at 10 mg/kg, po; assay type: ADME, organism-based; conditions: in vivo
[8] = Solubility in pH 2 citric acid monophosphate buffer after 4 hrs by HPLC analysis; assay type: physicochemical
[9] = Solubility in 0.1 N HCl buffer at pH 1 after 4 hrs by HPLC analysis; assay type: physicochemical
[10] = Solubility in 0.01 N HCl buffer at pH 2 after 4 hrs by HPLC analysis; assay type: physicochemical
[11] = Solubility in PH 7.4 PBS buffer after 4 hrs by HPLC analysis; assay type: physicochemical
[12] = Solubility in pH 6.5 FaSSIF after 4 hrs by HPLC analysis; assay type: physicochemical
[13] = Solubility in pH 5 FeSSIF after 4 hrs by HPLC analysis; assay type: physicochemical
[14] = Aqueous solubility after 4 hrs by HPLC analysis; assay type: physicochemical; conditions: water
[15] = Half life in rat blood after 4 hrs by LC-MS method; assay type: ADME, tissue-based
[16] = Drug degradation in human blood after 4 hrs by LC-MS method; assay type: ADME, tissue-based; conditions: read-out: Drug degradation
[17] = Clearance in Sprague-Dawley rat plasma at 100 mg/kg, po administered via gavage or administered as 10 mins infusion iv by LC/MS analysis; assay type: ADME, organism-based
[18] = Volume of distribution at steady state in Sprague-Dawley rat plasma at 100 mg/kg, po administered via gavage or iv administered as 10 mins infusion by LC/MS analysis; assay type: ADME, organism-based; conditions: read-out: Vdss
[19] = Half life in iv dosed Sprague-Dawley rat plasma administered as 10 mins infusion by LC/MS analysis; assay type: ADME, organism-based
[20] = Protein binding in human plasma at 2000 ng/ml after 6 hrs by equilibrium dialysis method; assay type: ADME, cell-free; conditions: read-out: PB
[21] = Protein binding in human liver microsomes at 1 uM by ultracentrifugation method; assay type: ADME, microsome; conditions: read-out: PB
[22] = Drug level in human liver microsomes treated with N205 at 5 uM after 60 mins by UPLC-MS analysis; assay type: ADME, microsome; conditions: 1 h
[23] = Drug level in rat liver microsomes treated with N205 at 5 uM after 60 mins by UPLC-MS analysis; assay type: ADME, microsome; conditions: 1 h
[24] = Drug level in mouse liver microsomes treated with N205 at 5 uM after 60 mins by UPLC-MS analysis; assay type: ADME, microsome; conditions: 1 h
[25] = Retention time of the compound; assay type: physicochemical
Plasmodium falciparum [26] = test: Antimalarial activity against Plasmodium falciparum Pf3D70087/N9 infected in humanized NOD.Cg-Prkdcscid Il2rgtm1Wjl/SzJ mouse assessed as reduction in parasitemia administered 4 daily doses by SYTO-16 dye-based flow cytometric analysis; assay type: functional
Plasmodium falciparum [27] = test: Antimalarial activity against Plasmodium falciparum Pf3D70087/N9 infected in po dosed humanized NOD.Cg-Prkdcscid Il2rgtm1Wjl/SzJ mouse assessed as compound concentration in whole blood require to reduce parasitemia in peripheral blood by 90% administered as single dose measured on day 7 post infection by SYTO-16 dye-based flow cytometric analysis; assay type: functional, organism-based
[28] = Oral bioavailability in Sprague-Dawley rat at 100 mg/kg administered via gavage by LC/MS analysis; assay type: ADME, organism-based; conditions: in vivo
Plasmodium falciparum [29] = test: Antimalarial activity against Plasmodium falciparum Pf3D70087/N9 infected in po dosed humanized NOD.Cg-Prkdcscid Il2rgtm1Wjl/SzJ mouse assessed as reduction in parasitemia administered as single dose measured on day 7 post infection by SYTO-16 dye-based flow cytometric analysis; assay type: functional; conditions: 168 h

For `FC1CCN(Cc2ccc(C3CCC4(CC3)OOC3(OO4)C4CC5CC(C4)CC3C5)cc2)CC1` (centres undefined), the Stability [1] was “Stable”, the IC50 (Plasmodium falciparum [2]) was 1.8 nM and the Stability [3] was “Stable”.

In the case of `NC1CN(C(=O)c2ccc(C3CCC4(CC3)OOC3(OO4)C4CC5CC(C4)CC3C5)cc2)C1` (centres undefined), the IC50 (Plasmodium falciparum [2]) is reported as 33 nM and the half-life [4] is reported as < 4 h.

Work on `CS(=O)(=O)O.FC1CCN(Cc2ccc(C3CCC4(CC3)OOC3(OO4)C4CC5CC(C4)CC3C5)cc2)CC1` (centres undefined) yielded an Activity (Plasmodium berghei [5]) of 99.98% and an MSD (Plasmodium berghei [6]) of 13 days.

In the case of `O=C(NCC1CCNCC1)c1ccc(C2CCC3(CC2)OOC2(OO3)C3CC4CC(C3)CC2C4)cc1` (centres undefined), the IC50 (Plasmodium falciparum [2]) is reported as 5.3 nM and the half-life [4] is reported as < 4 h.

For `CN1CCN(C2CCN(C(=O)CC3CCC4(CC3)OOC3(OO4)C4CC5CC(C4)CC3C5)CC2)CC1` (centres undefined), the Activity (Plasmodium berghei [5]) was 99.98%, the MSD (Plasmodium berghei [6]) was 11.4 days and the half-life [7] was 3.5 h.

In the case of `O=C(c1ccc(C2CCC3(CC2)OOC2(OO3)C3CC4CC(C3)CC2C4)cc1)N1CCOCC1` (centres undefined), the IC50 (Plasmodium falciparum [2]) is reported as 7.1 nM and the half-life [4] is reported as < 4 h.

For `CS(=O)(=O)O.c1cc(C2CCC3(CC2)OOC2(OO3)C3CC4CC(C3)CC2C4)ccc1CN1CCOCC1` (centres undefined), the Activity (Plasmodium berghei [5]) was 99.3%, the MSD (Plasmodium berghei [6]) was 25 days and the solubility at 4 h [8] was > 9000 µg/mL. For the same compound, the solubility at 4 h [9] was 17 µg/mL, the solubility at 4 h [10] was 172 µg/mL and the solubility at 4 h [11] was < 0.1 µg/mL. For the same compound, the solubility at 4 h [12] was 18 µg/mL, the solubility ([13]; simulated gi fluid, pH 5, 4 h) was 760 µg/mL and the solubility at 4 h [14] was > 9000 µg/mL. It also gave a half-life [15] of 8 h, a metabolised at 4 h [16] of 10% and a clearance [17] of 77 mL/min/kg. The Vd [18] was 11 L/kg, the half-life [19] was 6.35 h and the fraction unbound at 6 h, 2000 ng/ml [20] was < 0.001. For the same compound, the fraction unbound at 1 µM [21] was < 0.001.

For `OC1CCC(c2ccc(CN3CCOCC3)cc2)CC1` (centres undefined), the Drug metabolism [22] was “Metabolite_Detected”, the Drug metabolism [23] was “Metabolite_Detected” and the Drug metabolism [24] was “Metabolite_Detected”. It also gave a Retention_time [25] of 0.86 min.

Compound `C[C@H]1[C@H](OC(=O)CCC(=O)O)O[C@@H]2O[C@@]3(C)CC[C@H]4[C@H](C)CC[C@@H]1[C@@]24OO3` [ARTESUNATE] has an Activity (Plasmodium berghei [5]) of 99.09%, an MSD (Plasmodium berghei [6]) of 6.8 days and an ED90 (Plasmodium falciparum [26]) of 10 mg/kg.

For `O=C1CCC(c2ccc(CN3CCOCC3)cc2)CC1`, the Drug metabolism [22] was “Metabolite_Detected”, the Drug metabolism [23] was “Metabolite_Detected” and the Drug metabolism [24] was “Metabolite_Detected”. It also gave a Retention_time [25] of 0.84 min.

For `NC1CCN(C(=O)c2ccc(C3CCC4(CC3)OOC3(OO4)C4CC5CC(C4)CC3C5)cc2)CC1` (centres undefined), the IC50 (Plasmodium falciparum [2]) was 4.2 nM, the half-life [4] was < 4 h and the Activity (Plasmodium berghei [5]) was 99%. For the same compound, the MSD (Plasmodium berghei [6]) was 8 days.

`c1cc(C2CCC3(CC2)OOC2(O3)C3CC4CC(C3)CC2C4)ccc1OCCN1CCOCC1` (centres undefined) [listing 1 of 2 here] showed an AUCED90 (Plasmodium falciparum [27]) of 0.68 µg·h/mL.

For `CN1CCN(C(=O)c2ccc(C3CCC4(CC3)OOC3(OO4)C4CC5CC(C4)CC3C5)cc2)CC1` (centres undefined), the IC50 (Plasmodium falciparum [2]) was 6.4 nM and the half-life [4] was < 4 h.

For `CS(=O)(=O)O.c1cc(C2CCC3(CC2)OOC2(O3)C3CC4CC(C3)CC2C4)ccc1OCCN1CCOCC1` (centres undefined), the solubility at 4 h [8] was > 8000 µg/mL, the solubility at 4 h [9] was 34 µg/mL and the solubility at 4 h [10] was 240 µg/mL. For the same compound, the solubility at 4 h [12] was 120 µg/mL, the solubility at 4 h ([13]; FeSSIF, pH 5) was > 1500 µg/mL and the solubility at 4 h [14] was 6800 µg/mL. The Vd [18] was 18 L/kg and the bioavailability [28] was 100%.

With `O=C(c1ccc(C2CCC3(CC2)OOC2(OO3)C3CC4CC(C3)CC2C4)cc1)N1CCSCC1` (centres undefined) the IC50 (Plasmodium falciparum [2]) was 15 nM and the half-life [4] was < 4 h.

With `CC(C)(N)CNC(=O)CC1CCC2(CC1)OOC1(O2)C2CC3CC(C2)CC1C3` (centres undefined) the Activity (Plasmodium berghei [5]) was 99.98% and the MSD (Plasmodium berghei [6]) was 10.2 days.

For `NCCNC(=O)c1ccc(C2CCC3(CC2)OOC2(OO3)C3CC4CC(C3)CC2C4)cc1` (centres undefined), the IC50 (Plasmodium falciparum [2]) was 1.1 nM and the half-life [4] was < 4 h.

For `c1cc(C2CCC3(CC2)OOC2(OO3)C3CC4CC(C3)CC2C4)ccc1CN1CCOCC1` (centres undefined), the AUCED90 (Plasmodium falciparum [27]) was < 0.75 µg·h/mL.

For `c1cc(C2CCC3(CC2)OOC2(O3)C3CC4CC(C3)CC2C4)ccc1OCCN1CCOCC1` (centres undefined) [listing 2 of 2 here], the IC50 (Plasmodium falciparum [2]) was 8 nM, the Activity (Plasmodium berghei [5]) was 99.4% and the MSD (Plasmodium berghei [6]) was 30 days. The ED90 (Plasmodium falciparum [29]) was 6.2 mg/kg.

For `CNCCNC(=O)c1ccc(C2CCC3(CC2)OOC2(OO3)C3CC4CC(C3)CC2C4)cc1` (centres undefined), the IC50 (Plasmodium falciparum [2]) was 0.84 nM and the half-life [4] was < 4 h.

In the case of `O=C(c1ccc(C2CCC3(CC2)OOC2(OO3)C3CC4CC(C3)CC2C4)cc1)N1CCNCC1` (centres undefined), the IC50 (Plasmodium falciparum [2]) is reported as 3 nM, the half-life [4] is reported as < 4 h and the Activity (Plasmodium berghei [5]) is reported as 99%. The MSD (Plasmodium berghei [6]) was 10 days.

With `OCCNCc1ccc(C2CCC3(CC2)OOC2(OO3)C3CC4CC(C3)CC2C4)cc1` (centres undefined) the Drug metabolism [22] was “Metabolite_Detected”, the Drug metabolism [23] was “Metabolite_Detected” and the Drug metabolism [24] was “Metabolite_Detected”. It also gave a Retention_time [25] of 3.54 min.

With `O=C(c1ccc(C2CCC3(CC2)OOC2(OO3)C3CC4CC(C3)CC2C4)cc1)N1CCCNCC1` (centres undefined) the IC50 (Plasmodium falciparum [2]) was 0.82 nM and the half-life [4] was < 4 h.
